{"source": "patent US20220096431A1", "about": "“PHARMACEUTICAL COMPOSITION AND METHOD FOR PREVENTING, TREATING AND DIAGNOSING A NEURODEGENERATIVE DISEASE” (BUDDHIST TZU CHI MEDICAL FOUNDATION, priority 2020, published 2022)", "key": {"3xTg AD mice": {"test_system": "3xTg AD mice", "assay": "Immunostaining with Aβ1-42 antibody of brain sections", "format": "in vivo", "protocol": "FIGS. 8D and 8E show the result of immunostaining with Aβ1-42 antibody to detect amyloid deposition in the brain. Brain sections were selected at −2.2 mm posterior to bregma. Red dot indicated Aβ1-42 plaque accumulation. n=5 for B6 mice and 3xTg-60 mg/kg n-BP group. n=4 for 3xTg vehicle group. n=6 for […]. Scale bars represent 1 mm. *p-value<0.05, **p-value<0.01 (Student's t-test).\nIt was observed that AP accumulation was absent in the hippocampus of B6 mice but present in that of 3xTg AD mice. […] Specifically, immunostaining was used to detect Aβ1-42 accumulation in the hippocampus of 14-month-old 3xTg AD mice."}, "[1]": {"test_system": "Ts-21 iPSCs (neurons with Alzheimer's disease symptoms)", "assay": "Gene microarray analysis of n-BP-treated Ts-21 iPSCs", "format": "cell-based, human", "from_the_text": "To examine the mechanism by which n-BP regulated miR expression, n-BP-treated Ts-21 iPSCs were subjected to gene microarray analysis. […] The 4 predicted binding energy between lnc-CYP3A43-2 and miR-29b-2-5p are the lowest (−11.49 Kcal/mol) among these four lncRNA and the predicted target sequence between lnc-CYP3A43-2 and miR-29b-2-5p are shown in FIG. 6G.\nFor example, ATP6V0D2 and IST1 are autophagy-related genes, and the expression levels thereof increase by 30.07 times and 15.72 times, respectively, after administration of n-butylidenephthalide, while genes related to inflammation including NT5E, STAP1, DEC1, ADAMDEC1 have their expression levels reduced by 12.6, 12.79, 28.35 and 43.55 times, respectively."}, "[2]": {"test_system": "miR-29b-2-5p and PSEN1 in the hippocampus of 3xTg AD mice", "assay": "RT-qPCR of miR-29b-2-5p and PSEN1 in the hippocampus of 3xTg AD mice", "format": "in vivo", "from_the_text": "FIGS. 7E and 7F show the RT-qPCR analysis result of the expression levels of miR-29b-2-5p and PSEN1, respectively, in the hippocampus of 3xTg AD mice. n=—4.\nAD-3xTg transgenic mice are an animal model used to study Alzheimer's disease. The transgenic mice are genetically engineered to carry point mutations of human amyloid precursor protein (APP), microtubule-associated protein tau (MAPT P301L) and type I presenilin protein (PSEN-1). The AD-3xTg transgenic mice carrying Alzheimer's mutation genes affect the brain and produce symptoms, mainly involving amyloid aggregation in the hippocampus and cerebral cortex. […] The 3xTg mice have β-amyloid accumulation in the brain and have problems related to cognition."}, "[3]": {"test_system": "PSEN-1, PSEN-2, Aβ1-42 and NICD in C6-C99 cells", "assay": "Western blotting of amyloid-related proteins in C6-C99 cells", "format": "cell-based", "settings": "C6-C99 cells", "from_the_text": "FIG. 3B to FIG. 3E are the quantitative results of the Western blotting analysis of PSEN-1, PSEN-2, β-amyloid 1-42 (Aβ1-42) and NICD in FIG. 3A, respectively (p*<0.05, p**<0.01). The C6-C99 cells used in FIGS. 3A to 3E are glioma cells having a fragment of human amyloid precursor protein (APP). This fragment is a peptide fragment with 99 amino acids (APP-C99), which can express large amounts of PSEN-1, PSEN-2, and Aβ 1-42 after activation by cumate.\nWestern blotting is used to detect the expression levels of amyloid-related proteins, including PSEN-1, PSEN-2, and β-amyloid 1-42 (Aβ1-42), while simultaneously detect the expression level of Notch protein (Notch intracellular domain, NICD), which is an indicator of drug safety. If the Notch protein is not affected, then drug safety is indicated.\nAPP-C99 was transfected into C6 cells with the C99 peptide through cumate-inducible system activation."}, "[4]": {"settings": "neurons with Alzheimer's disease symptoms, autophagy-related gene"}, "[5]": {"settings": "neurons with Alzheimer's disease symptoms, inflammation-related gene"}, "[6]": {"settings": "hippocampal gyrus of AD-3xTg mice, 120 mg/kg orally, vs untreated"}, "[7]": {"settings": "hippocampus of 3xTg AD mice, control 100%"}}, "data": [{"smiles": "CCCC=C1OC(=O)c2ccccc21", "note": "[n-BP, n-butylidenephthalide]", "values": [{"measurement": "Aβ accumulation in the hippocampus (Aβ1-42 antibody)", "setting": "3xTg AD mice; 3xTg AD mice, either dose of n-BP (60 or 120 mg/kg)", "result": "significantly decreased"}, {"measurement": "Aβ1-42 accumulation in the brain (immunostaining)", "setting": "3xTg AD mice; 14-month-old 3xTg AD mice, 120 mg n-BP/kg, vs vehicle", "result": "significantly reduced"}, {"measurement": "Multiple of change", "setting": "[1]; gene A 21 P0014752, neurons with Alzheimer's disease symptoms", "result": 17.29}, {"measurement": "Multiple of change", "setting": "[1]; gene ADAMDECI, neurons with Alzheimer's disease symptoms", "result": "−43.55"}, {"measurement": "Multiple of change", "setting": "[1]; gene ATP6VOD2, neurons with Alzheimer's disease symptoms", "result": 30.07}, {"measurement": "Multiple of change", "setting": "[1]; gene BG182298, neurons with Alzheimer's disease symptoms", "result": "−11.75"}, {"measurement": "Multiple of change", "setting": "[1]; gene CTLA4, neurons with Alzheimer's disease symptoms", "result": 29.78}, {"measurement": "Multiple of change", "setting": "[1]; gene DECI, neurons with Alzheimer's disease symptoms", "result": "−28.35"}, {"measurement": "Multiple of change", "setting": "[1]; gene EN ST00000442006, neurons with Alzheimer's disease symptoms", "result": "−26.17"}, {"measurement": "Multiple of change", "setting": "[1]; gene EN ST00000552046, neurons with Alzheimer's disease symptoms", "result": "−38.01"}, {"measurement": "Multiple of change", "setting": "[1]; gene EN ST00000589476, neurons with Alzheimer's disease symptoms", "result": "−26.08"}, {"measurement": "Multiple of change", "setting": "[1]; gene ENST00000427341, neurons with Alzheimer's disease symptoms", "result": 36.49}, {"measurement": "Multiple of change", "setting": "[1]; gene ENST00000444130, neurons with Alzheimer's disease symptoms", "result": 21.29}, {"measurement": "Multiple of change", "setting": "[1]; gene ENST00000496217, neurons with Alzheimer's disease symptoms", "result": 50.33}, {"measurement": "Multiple of change", "setting": "[1]; gene ENST00000503666, neurons with Alzheimer's disease symptoms", "result": 47.83}, {"measurement": "Multiple of change", "setting": "[1]; gene ENST00000554445, neurons with Alzheimer's disease symptoms", "result": 27.81}, {"measurement": "Multiple of change", "setting": "[1]; gene ENST00000556397, neurons with Alzheimer's disease symptoms", "result": 30.44}, {"measurement": "Multiple of change", "setting": "[1]; gene GATA3, neurons with Alzheimer's disease symptoms", "result": 10.76}, {"measurement": "Multiple of change", "setting": "[1]; gene ISTI, neurons with Alzheimer's disease symptoms", "result": 15.72}, {"measurement": "Multiple of change", "setting": "[1]; gene Inc-DCTD-2, neurons with Alzheimer's disease symptoms", "result": 9.25}, {"measurement": "Multiple of change", "setting": "[1]; gene Inc-RP11-766F14.2.1-1, neurons with Alzheimer's disease symptoms", "result": "−34.38"}, {"measurement": "Multiple of change", "setting": "[1]; gene LOC100131532, neurons with Alzheimer's disease symptoms", "result": 47.19}, {"measurement": "Multiple of change", "setting": "[1]; gene LOC101060106, neurons with Alzheimer's disease symptoms", "result": 22.27}, {"measurement": "Multiple of change", "setting": "[1]; gene LOC101928280, neurons with Alzheimer's disease symptoms", "result": "−43.14"}, {"measurement": "Multiple of change", "setting": "[1]; gene LOC101928885, neurons with Alzheimer's disease symptoms", "result": 21.40}, {"measurement": "Multiple of change", "setting": "[1]; gene MBOATI, neurons with Alzheimer's disease symptoms", "result": "−4.65"}, {"measurement": "Multiple of change", "setting": "[1]; gene NCFIB, neurons with Alzheimer's disease symptoms", "result": 34.03}, {"measurement": "Multiple of change", "setting": "[1]; gene NT5E, neurons with Alzheimer's disease symptoms", "result": "−12.60"}, {"measurement": "Multiple of change", "setting": "[1]; gene SAP30L-AS1, neurons with Alzheimer's disease symptoms", "result": 5.80}, {"measurement": "Multiple of change", "setting": "[1]; gene SH3RF3, neurons with Alzheimer's disease symptoms", "result": 23.23}, {"measurement": "Multiple of change", "setting": "[1]; gene SPANXN3, neurons with Alzheimer's disease symptoms", "result": 23.24}, {"measurement": "Multiple of change", "setting": "[1]; gene STAPI, neurons with Alzheimer's disease symptoms", "result": "−12.79"}, {"measurement": "Multiple of change", "setting": "[1]; gene TAC4, neurons with Alzheimer's disease symptoms", "result": 12.64}, {"measurement": "Multiple of change", "setting": "[1]; gene TDRD5, neurons with Alzheimer's disease symptoms", "result": 31.41}, {"measurement": "Multiple of change", "setting": "[1]; gene THC2717143, neurons with Alzheimer's disease symptoms", "result": 29.19}, {"measurement": "Multiple of change", "setting": "[1]; gene TMC3-AS1, neurons with Alzheimer's disease symptoms", "result": 6.53}, {"measurement": "Multiple of change", "setting": "[1]; gene TSKS, neurons with Alzheimer's disease symptoms", "result": 8.21}, {"measurement": "Multiple of change", "setting": "[1]; gene TTTY14, neurons with Alzheimer's disease symptoms", "result": "−22.89"}, {"measurement": "Multiple of change", "setting": "[1]; gene XLOC 12 011873, neurons with Alzheimer's disease symptoms", "result": 6.35}, {"measurement": "Multiple of change", "setting": "[1]; gene lnc-AL450307.1-1, neurons with Alzheimer's disease symptoms", "result": "−56.05"}, {"measurement": "Multiple of change", "setting": "[1]; gene lnc-C50rf49-2, neurons with Alzheimer's disease symptoms", "result": 34.90}, {"measurement": "Multiple of change", "setting": "[1]; gene lnc-CYP3A43-2, neurons with Alzheimer's disease symptoms", "result": "−60.06"}, {"measurement": "Multiple of change", "setting": "[1]; gene lnc-FZDIO-3, neurons with Alzheimer's disease symptoms", "result": 39.19}, {"measurement": "Multiple of change", "setting": "[1]; gene lnc-ILIRI-1, neurons with Alzheimer's disease symptoms", "result": "−39.19"}, {"measurement": "Multiple of change", "setting": "[1]; gene lnc-KCNC2-4, neurons with Alzheimer's disease symptoms", "result": "−8.92"}, {"measurement": "Multiple of change", "setting": "[1]; gene lnc-KCNG3-1, neurons with Alzheimer's disease symptoms", "result": 29.33}, {"measurement": "Multiple of change", "setting": "[1]; gene lnc-KHDRBS3-9, neurons with Alzheimer's disease symptoms", "result": 27.98}, {"measurement": "Multiple of change", "setting": "[1]; gene lnc-P2RY2-3, neurons with Alzheimer's disease symptoms", "result": "−105.51"}, {"measurement": "Multiple of change", "setting": "[1]; gene lnc-PGPEPIL-I, neurons with Alzheimer's disease symptoms", "result": 35.28}, {"measurement": "Multiple of change", "setting": "[1]; gene lnc-PTGES-I, neurons with Alzheimer's disease symptoms", "result": 28.50}, {"measurement": "Multiple of change", "setting": "[1]; gene lnc-USP16-7, neurons with Alzheimer's disease symptoms", "result": 31.72}, {"measurement": "Multiple of change", "setting": "[1]; gene lnc-ZBTB7C-1, neurons with Alzheimer's disease symptoms", "result": "−60.03"}, {"measurement": "Expression of four long noncoding RNA (lncRNA)", "setting": "[1]; n-BP-treated Ts-21 iPSCs", "result": "less than −50 fold"}, {"measurement": "ATP6V0D2 expression level, increase", "setting": "[1]; [4]", "result": 30.07, "unit": "times"}, {"measurement": "IST1 expression level, increase", "setting": "[1]; [4]", "result": 15.72, "unit": "times"}, {"measurement": "ADAMDEC1 expression level, reduced by", "setting": "[1]; [5]", "result": 43.55, "unit": "times"}, {"measurement": "DEC1 expression level, reduced by", "setting": "[1]; [5]", "result": 28.35, "unit": "times"}, {"measurement": "NT5E expression level, reduced by", "setting": "[1]; [5]", "result": 12.6, "unit": "times"}, {"measurement": "STAP1 expression level, reduced by", "setting": "[1]; [5]", "result": 12.79, "unit": "times"}, {"measurement": "Gene expression level of PSEN-1", "setting": "[2]; [6]", "result": "decreased expression levels"}, {"measurement": "Gene expression level of miRNA-29b-2-5p", "setting": "[2]; [6]", "result": "higher expression levels"}, {"measurement": "PSEN1 expression", "setting": "[2]; [7]", "result": "26.26%±27.75%"}, {"measurement": "miR-29b-2-5p expression", "setting": "[2]; [7]", "result": "188.58%±55.09%"}, {"measurement": "Aβ1-42 expression", "setting": "[3]; 100 μM n-BP", "result": "40.53%±28.46%"}, {"measurement": "PSEN1 expression", "setting": "[3]; 100 μM n-BP", "result": "37.33%±23.1%"}, {"measurement": "Aβ1-42 expression", "setting": "[3]; 100 μM, FIG. 3", "result": "significantly reduced"}, {"measurement": "Notch protein (NICD) expression, indicator of drug safety", "setting": "[3]; 100 μM, FIG. 3", "result": "not affected"}, {"measurement": "PSEN-1 expression", "setting": "[3]; 100 μM, FIG. 3", "result": "significantly reduced"}, {"measurement": "PSEN-2 expression", "setting": "[3]; 100 μM, FIG. 3", "result": "significantly reduced"}]}]}
